{
  "source": "paper PMC4192597",
  "about": "“Antimicrobials, Stress and Mutagenesis” (PLoS Pathogens, 2014)",
  "key": {"E. coli MG1655 [1]": {"tested_on": "E. coli MG1655", "experiment": "Killing by AMPs under thiourea ROS scavenger", "type": "cell-based, Escherichia coli", "details": "thiourea 100 mM (Figure S3)", "method": "SOS and rpoS mediated mutagenesis are well supported by empirical work, and it was recently proposed that antibiotics promote ROS formation and kill bacterial by lethal induction of hydroxyl-mediated DNA damage. Here we explored this new and debated proposition also for AMPs. We assessed AMP killing curves in E. coli MG1655 in the presence of the ROS scavenger thiourea (100 mM) and used Kanamycin as positive control.\nKanamycin was used a positive control. The procedure was the same as described in this work elsewhere for MIC50 (Fig. S3)."}, "[2]": {"tested_on": "E. coli stress response genes (strain MG1655)", "experiment": "Relative gene expression of stress response genes by quantitative real-time PCR; on Result, cpxR: key: NDE: non-differentially expressed, p-value ≥ 0,05; UP: upregulated, p-value ≤ 0,05; DOWN: downregulated, p-value ≤ 0,05; on Result, oxyR: key: NDE: non-differentially expressed, p-value ≥ 0,05; UP: upregulated, p-value ≤ 0,05; DOWN: downregulated, p-value ≤ 0,05; on Result, rpoE: key: NDE: non-differentially expressed, p-value ≥ 0,05; UP: upregulated, p-value ≤ 0,05; DOWN: downregulated, p-value ≤ 0,05", "type": "cell-based, Escherichia coli", "details": "qPCR, 20 minutes exposure vs non-treated bacteria", "method": "Preparation of each of the six treatments and the control samples was carried out by two operators on three consecutive days, thereby comprising three biological replicates for each of the six experimental and one control groups. To obtain the starting material for the experiment, a fresh bacterial culture was grown from a glycerol stock on Mueller-Hinton (MH) agar plates at 37°C for 18–24 hours. One well-isolated colony per biological replicate was used to inoculate 2 ml of liquid MH (Sigma) in a 10 ml sterile polypropylene tube and incubated at 37°C for 16 hours with mild shaking. The overnight (ON) culture was then diluted 1∶100 in MH, subdivided into seven 10 ml aliquots and incubated in 50 ml-Falcon tubes at 37°C for 2.5 hours at 220 rpm. When the OD600 of bacterial cultures reached 0.5–0.7, respective antibiotics and AMPs were added to a concentration to match with those used in the mutagenesis experiments. These bacterial cultures were incubated for 20 minutes at 37°C with gentle shaking. Two ml of bacterial cultures from each treatment and the control were collected, immediately centrifuged at 10000 g for 2 minutes and the supernatant was removed to stop the treatment. The bacterial pellet was then resuspended in 1 ml MH, followed by an addition of 1 ml of RNAprotect Bacteria Reagent (Qiagen), 5 minutes incubation and centrifugation at 10000 g for 2 minutes at room temperature. The supernatant was discarded and the bacterial pellet was immediately frozen and stored at −80°C until RNA extraction.\nTotal RNA was isolated using RNeasy kit (Qiagen) according to the manufacturer's instructions and eluted in 50 µl of RNase-free water. The nucleic acid yield and purity were determined by measuring the optical density at A260/280 using a Nanodrop spectrophotometer (Thermo Scientific). RNA samples were treated with TURBO DNase (Life Technologies). Briefly, ten µg of RNA were used in a total volume of 500 µl containing 20 units of TURBO DNase, incubated for 30 minutes at 37°C, immediately followed by RNeasy (Qiagen) cleanup and elution in 30 µl of RNase-free water. Following DNase treatment, RNA integrity was assessed using Agilent RNA 6000 Nano kit and 2100 Bioanalyzer instrument (both Agilent Technologies).\nHigh-Capacity cDNA Reverse Transcription Kit with RNase Inhibitor (Applied Biosystems) was used for cDNA synthesis. Initially, to ensure linear conversion of the transcripts, the dynamic range of reverse transcription reaction was tested by performing a standard curve with cDNA, synthesised using various input amounts of pooled RNA. Total RNA (250 ng per reaction) and random primers were used for cDNA synthesis. To obtain sufficient amount of cDNA, several batches of 20 µl RT reactions were pooled, diluted 50-fold with RNase-free water and stored in single-use aliquots at −80°C until further use. All 21 samples were tested for presence of contaminating genomic DNA by running the mdoG assay with cDNA and the respective no reverse transcription (−RT) controls.\nEscherichia coli strain K-12 substrain MG1655 complete genome (accession U00096) sequence was downloaded from NCBI database (www.ncbi.nlm.nih.gov) and used for primer design. Target sequence accession number, location of the amplicon, amplicon length and primer sequences for each assay can be found in table S2. Primers were designed using Primer Express software (Applied Biosystems) and optimized for annealing temperature of 60°C. Each primer pair and amplicon were checked for secondary structure formation using Oligo Tool (Integrated DNA technologies, http://eu.idtdna.com/analyzer/Applications/OligoAnalyzer/)."}, "[3]": {"tested_on": "E. coli stress response genes", "details": "kanamycin 5 μg/ml, ref Kohanski,2007, cited from earlier work"}, "E. coli MG1655 [4]": {"tested_on": "E. coli MG1655", "experiment": "microbe, parasite or virus in culture", "type": "cell-based, Escherichia coli", "details": "4 hours, 50% reduction of CFUs vs control, Mueller Hinton Broth, 37°C, five replicates, repeated twice", "method": "The MIC50s for all antimicrobials were determined by inoculating strains grown to mid-log phase into the wells of a 96-microwell plate. Approximately 10^2 cells from overnight cultures were inoculated into tubes containing 10 ml of Mueller Hinton Broth medium, and the tubes were incubated at 37°C with strong shaking until the mid-log phase of growth (approximately 10^8 cells/ml). […] The plates were incubated at 37°C for 4 h with continuous shaking in a plate reader (Synergy 2, BioTeK). After four hours, aliquots from wells with OD^600 readings ranging from 10 to 90% values in comparison with the control, were serially diluted in sterile 0.9% NaCl, and incubated during 1 hour to allow the resolution of filaments as consequence of SOS activation, if any. Bacterial suspensions were plated in Mueller Hinton Broth agar plates to estimate the viability as colony forming units (CFUs). Five replicates per concentration were prepared and the experiments were repeated twice."}, "E. coli MG1655 [5]": {"tested_on": "E. coli MG1655", "experiment": "Minimal inhibitory concentration (MIC), micro-dilution", "type": "cell-based, Escherichia coli", "details": "inoculum 2×10^8 cfu/ml, 24 h, liquid MH medium, 37°C", "method": "E. coli K-12 MG1655 was used for all experiments, grown in liquid Mueller-Hilton (MH) agar or agarose, unless otherwise indicated. All experiments were carried out at 37°C.\nMICs were determined according to CLSI recommendations by a micro-dilution method with the exception that the inoculum size that was adjusted to 2×10^8 cfu/ml from a regrowth of overnight cultures to be consistent with the mutagenesis experiments. […] Polypropylene non-binding plates (Th. Geyer, Germany) were used for all experiments."}, "[6]": {"details": "normalized to arcA, mdoG, tus, Pexiganan 16, Melittin 16, Kanamycin 16, Ciprofloxacin 0.5, Lysozyme 128, Ampicillin 32 μg/ml, three biological replicates"}},
  "data": [
    {"smiles": "NC[C@H]1O[C@H](O[C@H]2[C@H](O)[C@@H](O[C@H]3O[C@H](CO)[C@@H](O)[C@H](N)[C@H]3O)[C@H](N)C[C@@H]2N)[C@H](O)[C@@H](O)[C@@H]1O", "note": "[Kanamycin]", "values": [
      {"measurement": "killing / sensitivity in the presence of the ROS scavenger thiourea", "setting": "E. coli MG1655 [1]", "value": "reduced sensitivity"},
      {"measurement": "Result, cpxA", "setting": "[2]; REST 2009 randomisation test", "value": "NDE"},
      {"measurement": "Result, cpxR", "setting": "[2]; REST 2009 randomisation test", "value": "NDE"},
      {"measurement": "Result, dinB", "setting": "[2]; REST 2009 randomisation test", "value": "NDE"},
      {"measurement": "Result, lexA", "setting": "[2]; REST 2009 randomisation test", "value": "NDE"},
      {"measurement": "Result, marR", "setting": "[2]; REST 2009 randomisation test", "value": "NDE"},
      {"measurement": "Result, oxyR", "setting": "[2]; REST 2009 randomisation test", "value": "NDE"},
      {"measurement": "Result, phoP", "setting": "[2]; REST 2009 randomisation test", "value": "NDE"},
      {"measurement": "Result, phoQ", "setting": "[2]; REST 2009 randomisation test", "value": "NDE"},
      {"measurement": "Result, recA", "setting": "[2]; REST 2009 randomisation test", "value": "NDE"},
      {"measurement": "Result, rpoE", "setting": "[2]; REST 2009 randomisation test", "value": "NDE"},
      {"measurement": "Result, rpoS", "setting": "[2]; REST 2009 randomisation test", "value": "NDE"},
      {"measurement": "Result, umuC", "setting": "[2]; REST 2009 randomisation test", "value": "NDE"},
      {"measurement": "Expression, cpxA (Envelope stress)", "setting": "[2]; [6]", "value": 1.069},
      {"measurement": "Expression, cpxR (Envelope stress)", "setting": "[2]; [6]", "value": 0.812},
      {"measurement": "Expression, dinB (SOS response)", "setting": "[2]; [6]", "value": 1.083},
      {"measurement": "Expression, lexA (SOS response)", "setting": "[2]; [6]", "value": 1.302},
      {"measurement": "Expression, marR (Independent multiple antibiotic resistance)", "setting": "[2]; [6]", "value": 1.073},
      {"measurement": "Expression, oxyR (Oxidative stress)", "setting": "[2]; [6]", "value": 1.333},
      {"measurement": "Expression, phoP (Envelope stress)", "setting": "[2]; [6]", "value": 0.94},
      {"measurement": "Expression, phoQ (Envelope stress)", "setting": "[2]; [6]", "value": 0.769},
      {"measurement": "Expression, recA (SOS response)", "setting": "[2]; [6]", "value": 1.331},
      {"measurement": "Expression, rpoE (Envelope stress)", "setting": "[2]; [6]", "value": 1.236},
      {"measurement": "Expression, rpoS (Sigma S response)", "setting": "[2]; [6]", "value": 0.967},
      {"measurement": "Expression, umuC (SOS response)", "setting": "[2]; [6]", "value": 0.974},
      {"measurement": "expression, rpoE (microarray database)", "setting": "[3]; 30 min", "value": 2.118},
      {"measurement": "expression, marR (microarray database)", "setting": "[3]; 60 min", "value": 8.767},
      {"measurement": "expression, phoP (microarray database)", "setting": "[3]; 60 min", "value": 2.411},
      {"measurement": "expression, lexA (microarray database)", "setting": "[3]; 120 min", "value": 3.48},
      {"measurement": "expression, oxyR (microarray database)", "setting": "[3]; 120 min", "value": 3.362},
      {"measurement": "MIC50", "setting": "E. coli MG1655 [4]", "value": 1.6, "unit": "µg/mL"},
      {"measurement": "MIC", "setting": "E. coli MG1655 [5]", "value": 2, "unit": "µg/mL"}
    ]}
  ]
}
